From patent publication US11445912B2, “Robust myocardial blood oxygen level dependent magnetic resonance imaging with long acting coronary vasodilators” (Cedars-Sinai Medical Center, priority 2015, dated 2022)
Read-outs that look alike come from different tables or passages of the source.

Legend:
[1] = cited from earlier work; for terminal half-life: extended vasodilatory state
intact dogs [2] = assay: 13N-NH3 PET myocardial perfusion reserve (Example 3); type: in vivo; conditions: p.r.a
Description: (§1) Intact (n=7) and infarcted (n=2) dogs were studied in a hybrid PET/MR system. 2D BOLD (T2 maps), LGE and ^13N—NH3 PET images were acquired at rest and at post-regadenoson administration (p.r.a.). T2 maps post-regadenoson administration (p.r.a.) were repeatedly acquired over 30 mins and were registered to T2 maps at rest. These time-dependent T2 maps were then used to model the coronary relaxation as T2(t)=T2o+ΔT2max exp(−t/τ), where T2o, ΔT2max and τ are fit parameters with T2o=T2 at rest; ΔT2max=maximal T2 change from rest; and τ=time constant of coronary relaxation. Maximum BOLD response from CRM was estimated (MBRCRM=ΔT2max/T2o×100%) and compared to conventional myocardial BOLD response [MBRcon=(T2^2min−Rest T2)/Rest T2×100%, where T2^2min=myocardial T2 at 2 min p.r.a and Rest T2=T2 prior to regadenoson injection] using a regression model. In infarcted dogs, affected zones were identified using Late Gadolinium Enhancement (LGE). BOLD contrast-to-noise ratio (CNR) between remote and affected zones (CNR=(μMBRRemote−μMBRAffected)/σMBRRemote, where μ and σ are the mean and std dev) were estimated for MBRCRM and MBRcon and compared. MBRs were validated with perfusion reserve from PET myocardial perfusion reserve (MPR).

intact dogs [3] = assay: Repeated BOLD CMR with coronary relaxation model (Example 3); type: in vivo
Description: as §1

[4] = test system: dog with chronic infarction; assay: 13N ammonia PET myocardial perfusion reserve in infarcted animal (Example 2); type: in vivo; conditions: PET at 2 minutes post regadenoson
Description: Image acquisition: Human studies were performed on a 3.0 T clinical MM system (MAGNETOM Verio®, Siemens Healthcare, Erlangen, Germany) and the animals were studied on a 3T whole body PET MR system (Biograph mMR, Siemens Healthcare, Erlangen, Germany). In all subjects, BOLD images were acquired with a commercially available 2D T2 mapping sequence {Giri, 2009 #820}. In all studies, after localization and shimming, rest BOLD images were acquired under baseline followed by a bolus regadenoson injection. Post regadenoson administration, BOLD CMR images were acquired between 2 to 30 minutes after regadenoson injection with an interval of 1-5 minutes depending on the physiological and imaging condition. In the animal with chronic infarction, simultaneous ^13N ammonia PET images were acquired at 2 minutes post regadenoson administration to validate the hyperemic response from regadenoson. In addition, LGE images were acquired to identify the infarcted territories after all BOLD acquisitions were completed. Block representations of imaging protocols are illustrated in FIG. 5. […]
In addition, simultaneously acquired quantitative PET images were used to derive myocardial perfusion reserve (MPR) with a clinical validated software (QPET, Cedars-Sinai Medical Center, Los Angeles) and to validate the reduced MPR in the infarcted myocardium.

healthy human volunteers = assay: Repeated BOLD CMR, coronary dynamic parameters from mono-exponential model (Example 2); type: in vivo; conditions: global myocardium
Description: (§2) BOLD images were acquired at different time points before and after regadenoson administration to sample the rest and stress images, respectively. After bolus regadenoson injection, multiple stress images were acquired to sample the coronary dynamics curve for 30 minutes. All stress images were registered to the rest images with a non-rigid motion correction algorithm (Avants B B, Tustison N J, Song G, Cook P A, Klein A, Gee J C. A reproducible evaluation of ANTs similarity metric performance in brain image registration. Neuroimage 2011; 54:2033-44) to correct for motion-induced miss match between acquisitions. Motion corrected images were used to extract the CDPs throughout the stress period using a mono-exponential model (Felmlee M A, Morris M E, Mager D E. Mechanism-based pharmacodynamic modeling. Methods in molecular biology 2012; 929:583-600) (T2(t)=T2o+ΔT2max exp(−t/τ)). A flow chart of the experimental setup is depicted in FIG. 4.
(§3) In healthy volunteers and intact dogs, global CDPs were extracted from the myocardium. Maximum BOLD response was derived with CDPs (MBRCDP=ΔT2max/T2o×100%) and compared with conventional myocardial BOLD response (MBRcon), which was derived as the T2 elevation from rest to 2 minutes after regadenoson administration (MBRconv=[(StressT2^2min/Rest T2)−1)×100%]. In the animals with coronary impairment, CDPs were measured in segmental and pixel-wise manner. Pixel-wised CDPs between remote and affected territories were segmented using SVMs to investigate the capability of separating diseased myocardium from the remote regions. In addition, CDPs were derived from subsets of BOLD images with different starting time points to probe the optimized setup of detecting affected territories. Details of each step are described in the following sections.
(§4) Experimental Subjects and animal preparation: We studied healthy human volunteers (n=6), intact dogs (n=7) and dogs with chronic infarctions (n=1). During imaging studies in animals, all animals were mechanically ventilated and anesthetized with propofol. In the dog with chronic infarction, the animal underwent an open chest ischemia reperfusion protocol (3 hours of ischemia followed by reperfusion), followed by 8-week recovery prior to imaging.
(§5) Image acquisition: Human studies were performed on a 3.0 T clinical MM system (MAGNETOM Verio®, Siemens Healthcare, Erlangen, Germany) and the animals were studied on a 3T whole body PET MR system (Biograph mMR, Siemens Healthcare, Erlangen, Germany). In all subjects, BOLD images were acquired with a commercially available 2D T2 mapping sequence {Giri, 2009 #820}. In all studies, after localization and shimming, rest BOLD images were acquired under baseline followed by a bolus regadenoson injection. Post regadenoson administration, BOLD CMR images were acquired between 2 to 30 minutes after regadenoson injection with an interval of 1-5 minutes depending on the physiological and imaging condition. In the animal with chronic infarction, simultaneous ^13N ammonia PET images were acquired at 2 minutes post regadenoson administration to validate the hyperemic response from regadenoson. In addition, LGE images were acquired to identify the infarcted territories after all BOLD acquisitions were completed. Block representations of imaging protocols are illustrated in FIG. 5. Imaging parameters are listed as the following: T2 mapping: TR/TE=2.9 ms/1.1 ms, iPAT=2, partial Fourier=3/4, FA=35°, BW=1184 Hz/pixel, 86 lines per heartbeat (simulated rate […]), trigger pulse=4, FOV=288×360 mm^2, matrix size=154×192, and voxel size=2.5×1.7×6.0 mm^3, T2 preparation (as TEs)=0, 24, 55 ms.
(§6) Image Processing: The series of BOLD images acquired post regadenoson administration were aligned using the advanced normalization tools (ANTS software). Rest images were used as the reference for registration. […]

intact dogs [5] = assay: as above; type: in vivo; conditions: global myocardium
Description: as §2, §3, §4, §5, §6

infarcted dogs [6] = assay: 13N-NH3 PET myocardial perfusion reserve, remote vs affected zones (Example 3); type: in vivo
Description: as §1

Canines [7] = assay: 13N-ammonia PET myocardial blood flow at rest and post regadenoson, PET/MR (Example 1); type: in vivo
Description: (§7) Canines (n=7) were studied in a PET/MR system. MR acquisitions were used to generate short-axis 2D T2 maps; and the PET acquisitions following ^[…]-ammonia infusion were used to quantify myocardial blood flow (MBF). Initially, 2D T2 maps and PET signals were acquired at rest. Subsequently, regadenoson (2.5 μg/kg) was administrated. T2 maps were acquired at 2- and 10-mins p.r.a and PET signals were acquired at 10-mins p.r.a. Standard deviation (a) of myocardial T2 values was measured at rest, 2- and 10-mins p.r.a from T2 maps and were used to determine Myocardial BOLD Variability (MBV, defined as σT2(stress)/σT2(rest)) at 2- and 10-min p.r.a. Similarly, using the mean T2 values, Myocardial BOLD Response (MBR, defined as T2(stress)/T2(rest)) was computed at 10-mins p.r.a. PET images were analyzed with qPET software to determine MBF and MPR at rest and 10-mins p.r.a and were regressed against MBR.

[8] = test system: dog with chronic infarction; assay: Repeated BOLD CMR, coronary dynamic parameters in remote and affected myocardium (Example 2); type: in vivo
Description: as §2, §3, §4
Image acquisition: Human studies were performed on a 3.0 T clinical MM system (MAGNETOM Verio®, Siemens Healthcare, Erlangen, Germany) and the animals were studied on a 3T whole body PET MR system (Biograph mMR, Siemens Healthcare, Erlangen, Germany). In all subjects, BOLD images were acquired with a commercially available 2D T2 mapping sequence {Giri, 2009 #820}. In all studies, after localization and shimming, rest BOLD images were acquired under baseline followed by a bolus regadenoson injection. […]

Canines [9] = assay: Myocardial BOLD CMR, 2D T2 maps post regadenoson (Example 1); type: in vivo
Description: as §7

infarcted dogs [10] = assay: Repeated BOLD CMR with coronary relaxation model, remote vs affected zones (Example 3); type: in vivo
Description: as §1

[11] = 10-min post regadenoson administration, 2.5 μg/kg
[12] = affected (infarcted) myocardium

Which terminal half-life [1] does the source give for CCNC(=O)[C@H]1O[C@@H](n2cnc3c(N)nc(C#CC[C@H]4CC[C@H](C(=O)OC)CC4)nc32)[C@H](O)[C@@H]1O [apadenoson] here?
Its terminal half-life is 5 min.

With Nc1nc(N/N=C/C2CCCCC2)nc2c1ncn2[C@@H]1O[C@H](CO)[C@@H](O)[C@H]1O [binodenoson] as the compound, how does the terminal half-life [1] read?
The terminal half-life was 10 to 120 min.

Which terminal half-life ([1]; units printed within the range) does the source give for OCCN(CCO)c1nc(N2CCCCC2)c2nc(N(CCO)CCO)nc(N3CCCCC3)c2n1 [dipyridamole] here?
The terminal half-life was 40 to 600 min.

With CNC(=O)c1cnn(-c2nc(N)c3ncn([C@@H]4O[C@H](CO)[C@@H](O)[C@H]4O)c3n2)c1 [regadenoson] as the compound, how does the “PET myocardial perfusion reserve (MPR)” value (intact dogs [2]) read?
The value was 3.0±0.6.

What about the “MBRCRM (ΔT2max/T2o×100%)” value (intact dogs [3]) of the same compound?
The value was 27±16%.

What about the “MBRcon ((T2 2min−Rest T2)/Rest T2×100%)” value (intact dogs [3]; 2 min p.r.a) of the same compound?
Its value is 12±6%.

And the “ΔT2max (maximal T2 change from rest)” value (intact dogs [3]; CRM fit)?
Its value is 14.7 ± 5.8 ms.

And the “τ (time constant of coronary relaxation)” value (intact dogs [3]; CRM fit)?
The value was 35.5 ± 26.8 min.

What about the “myocardial perfusion reserve (MPR)” value ([4]; infarcted territories) of the same compound?
The value was 1.9.

What about the “myocardial perfusion reserve (MPR)” value ([4]; remote myocardium) of the same compound?
Its value is 3.7.

What about the “MBRCDP (ΔT2max/T2o×100%)” value (healthy human volunteers) of the same compound?
Its value is 26.5%.

And the “MBRcon (T2 elevation from rest to 2 minutes after regadenoson)” value (healthy human volunteers)?
Its value is 12.0%.

And the “ΔT2max (maximum BOLD stimulation amplitude)” value (healthy human volunteers)?
Its value is 14.7 ms.

What about the “τ (coronary relaxation time constant)” value (healthy human volunteers) of the same compound?
Its value is 35.6 min.

And the “MBRCDP (ΔT2max/T2o×100%)” value (intact dogs [5])?
Its value is 25.8%.

What about the “MBRcon (T2 elevation from rest to 2 minutes after regadenoson)” value (intact dogs [5]) of the same compound?
The value was 10.1%.

And the “ΔT2max (maximum BOLD stimulation amplitude)” value (intact dogs [5])?
The value was 8.6 ms.

What about the “τ (coronary relaxation time constant)” value (intact dogs [5]) of the same compound?
The value was 38.5 min.

And the “MPRaffected (PET)” value (infarcted dogs [6]; Affected region)?
Its value is 1.9±0.7.

And the “MPRremote (PET)” value (infarcted dogs [6]; Remote region)?
The value was 3.7±0.6.

What about the “myocardial blood flow relative to rest” value (Canines [7]; 10-15 minutes post regadenoson infusion) of the same compound?
The value was “above 2 fold”.

What about the “myocardial blood flow (MBF)” value (Canines [7]; [11]) of the same compound?
Its value is 1.8 ± 0.9 mL/min/g.

And the “coronary relaxation time constant (τ)” value ([8]; Remote myocardium)?
Its value is 29.6 min.

And the “maximum T2 response (ΔT2max)” value ([8]; Remote myocardium)?
The value was 5.4 ms.

And the “coronary relaxation time constant (τ)” value [8, 12]?
The value was 54.09 min.

What about the “maximum T2 response (ΔT2max)” value [8, 12] of the same compound?
The value was 1.6 ms.

And the “Myocardial T2” value (Canines [9]; [11])?
Its value is 40.4 ± 1.7 ms.

And the “T2 elevation relative to rest” value (Canines [9]; 10 min post regadenoson administration)?
The value was 9%.

What about the MBRCRM (infarcted dogs [10]; Affected region) of the same compound?
Its MBRCRM is 1±10%.

And the MBRcon (infarcted dogs [10]; Affected region)?
The MBRcon was 5±7%.

And the MBRCRM (infarcted dogs [10]; Remote region)?
The MBRCRM was 27±6%.

And the MBRcon (infarcted dogs [10]; Remote region)?
The MBRcon was 15±5%.

What about the terminal half-life [1] of the same compound?
Its terminal half-life is 33 to 108 min.

What about the “second phase of pharmacological half-life” value ([1]; in vivo) of the same compound?
The value was “approximately 30 minutes”.
